From patent US8445719B2, “Method of stabilizing heme protein and storage solution therefor” (priority 2007, dated 2013)

Experiments:
Hemoglobin = Hemoglobin (Homo sapiens, UniProt P68871+P69905); test: Hemoglobin stabilization effect in storage solution, hemoglobin only (residual ratio by immunological measurement); conditions: for Residual ratio, Hemoglobin: stored at 37° C. for 20 hours, pH 7.0 HEPES storage solution; for Stabilizing effect (in words): 0.001-0.050 mol/L
[1] = target: Hemoglobin + feces sample (Homo sapiens, UniProt P68871+P69905); test: Hemoglobin stabilization effect in storage solution, hemoglobin coexisting with feces sample (residual ratio by immunological measurement); conditions: for Residual ratio, Hemoglobin + feces sample: stored at 37° C. for 20 hours, pH 7.0 HEPES storage solution; for Stabilizing effect (in words): 0.001-0.050 mol/L
Sequence of Hemoglobin + feces sample (P69905 2-142 limits assumed): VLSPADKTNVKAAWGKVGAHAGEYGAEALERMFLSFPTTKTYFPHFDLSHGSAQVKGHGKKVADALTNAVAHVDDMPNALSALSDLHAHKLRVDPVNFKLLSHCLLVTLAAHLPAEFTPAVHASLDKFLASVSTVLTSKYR
Sequence of Hemoglobin + feces sample (P68871 2-147 limits assumed): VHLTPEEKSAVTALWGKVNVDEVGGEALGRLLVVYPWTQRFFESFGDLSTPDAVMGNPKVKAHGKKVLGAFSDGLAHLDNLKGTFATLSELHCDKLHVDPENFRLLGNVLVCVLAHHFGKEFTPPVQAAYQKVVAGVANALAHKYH

fecal human hemoglobin = fecal human hemoglobin (Homo sapiens, UniProt P68871+P69905); conditions: single use of EDTA
Sequence of fecal human hemoglobin (P69905 2-142 limits assumed): as the sequence (P69905 2-142 limits assumed) above
Sequence of fecal human hemoglobin (P68871 2-147 limits assumed): as the sequence (P68871 2-147 limits assumed) above

[2] = test solution of hemoglobin only, 37° C., 20 hours
[3] = test solution in which hemoglobin and feces coexist, 37° C., 20 hours

Sequence of Hemoglobin (P69905 2-142 limits assumed): as the sequence (P69905 2-142 limits assumed) above
Sequence of Hemoglobin (P68871 2-147 limits assumed): as the sequence (P68871 2-147 limits assumed) above

SMILES	Residual ratio, Hemoglobin (Hemoglobin; 0.001 mol/L agent added)	Residual ratio, Hemoglobin (Hemoglobin; 0.010 mol/L agent added)	Residual ratio, Hemoglobin (Hemoglobin; 0.050 mol/L agent added)	Stabilizing effect (in words) (Hemoglobin; [2])	Residual ratio, Hemoglobin + feces sample ([1]; 0.001 mol/L agent added)	Residual ratio, Hemoglobin + feces sample ([1]; 0.010 mol/L agent added)	Residual ratio, Hemoglobin + feces sample ([1]; 0.050 mol/L agent added)	Stabilizing effect (in words) [1, 3]	also measured
O=C(O)CNCC(=O)O [IDA, iminodiacetic acid]	82.1%	80.9%	81.0%	slight stabilizing effect was observed	28.0%	27.3%	26.3%	any certain stabilizing effect was not observed	
O=C(O)CN(CCO)CC(=O)O [HIDA, N-(2-hydroxyethyl) iminodiacetic acid]	80.3%	79.3%	81.6%	slight stabilizing effect was observed	26.1%	26.4%	27.3%	any certain stabilizing effect was not observed	
O=C([O-])CC(NC(C(=O)[O-])C(O)C(=O)[O-])C(=O)[O-].[Na+].[Na+].[Na+].[Na+] (centres unmarked) [HIDS, tetrasodium 3-hydroxy-2,2′-iminodisuccinate]	82.8%	84.2%	84.1%		28.8%	39.2%	50.8%		Residual ratio, Hemoglobin (Hemoglobin; 0.005 mol/L agent added): 83.9%; Residual ratio, Hemoglobin (Hemoglobin; 0.075 mol/L agent added): 85.2%; Residual ratio, Hemoglobin (Hemoglobin; 0.100 mol/L agent added): 87.8%; Residual ratio, Hemoglobin (Hemoglobin; 0.150 mol/L agent added): 88.2%; Residual ratio, Hemoglobin (Hemoglobin; 0.200 mol/L agent added): 86.2%; Concentration at which a stabilizing effect was observed (Hemoglobin; [2]): ≥ 0.001 mol/L; Residual ratio, Hemoglobin + feces sample ([1]; 0.005 mol/L agent added): 32.3%; Residual ratio, Hemoglobin + feces sample ([1]; 0.075 mol/L agent added): 53.9%; Residual ratio, Hemoglobin + feces sample ([1]; 0.100 mol/L agent added): 55.9%; Residual ratio, Hemoglobin + feces sample ([1]; 0.150 mol/L agent added): 57.8%; Residual ratio, Hemoglobin + feces sample ([1]; 0.200 mol/L agent added): 46.3%; Concentration at which the effect to stabilize hemoglobin was remarkable ([1]; 37° C., 20 hours): ≥ 0.050 mol/L; Concentration at which the stabilizing effect is observed [1, 3]: ≥ 0.005 mol/L
O=C(O)CN(CCN(CC(=O)O)CC(=O)O)CC(=O)O [EDTA, ethylenediamine-N,N,N′,N′-4 acetic acid]	79.5%	79.8%	82.4%	slight stabilizing effect was observed	34.3%	35.8%	37.1%	slightly higher effect to stabilize hemoglobin was observed	Stabilizing action on fecal human hemoglobin (in words) (fecal human hemoglobin): sufficient stabilizing action on fecal human hemoglobin cannot be expected
